Data published in PMC10488193, “Evaluation of the Chemical Stability, Membrane Permeability and Antiproliferative Activity of Cyclic Diarylheptanoids from European Hornbeam (Carpinus betulus L.)” (International Journal of Molecular Sciences, 2023).
Like-named read-outs stand apart in the source and are kept apart here. Values belong to the compound of their own block, whether it stands above or below them.

What was measured:
[1] = design: method as in PMID 28074653; conditions: ambient temperature, solvolysis and oxidative degradation; cited from earlier work
[2] = tested on: A2058 (melanoma, derived from metastatic site: lymph node); assay: In vitro antiproliferative activity, Alamar Blue assay; type: cell-based; conditions: Homo sapiens
Protocol: (§1) For the experiments, the following human cell lines were used: A2058 (melanoma, derived from metastatic site: lymph node), HepG2 (hepatocellular carcinoma), U87 (glioblastoma), HT-29 (colorectal carcinoma) and HL-60 (acute promyelocytic leukaemia). Cell lines were generous gifts from Dr. […] (Department of Experimental Pharmacology, National Institute of Oncology, Budapest, Hungary). […] The cultures were maintained at 37 °C in a humidified atmosphere with 5% CO2. The cells were grown to confluency and then divided into 96-well tissue culture plates (Sarstedt, Nümbrecht, Germany) with an initial cell number of 5000 cells/well. Cells were incubated at 37 °C in a 5% CO2 humidified atmosphere overnight. Before the assay, 50 μL of the supernatant was removed and replaced with a 50 μL serum-free medium (SFM). […] The cells were treated for 24 h with the compounds and negative control cells (no compound control) were treated with SFM only (incubated at 37 °C). […] The percentage of cytostasis was calculated with the following equation: […] Data were evaluated with Excel (version: 365; Microsoft, Redmond, WA, USA) and the curves were defined using Microcal OriginPro (version: 2018; OriginLab, Northampton, MA, USA) software. In each case, two independent experiments were carried out with four parallel measurements and the mean IC50 values together with ±SD were represented. The Excel (version: 365) (Microsoft, Redmond, WA, USA) and Microcal OriginPro (version: 2018) (OriginLab, Northampton, MA, USA) softwares were used for data evaluation.

[3] = tested on: HL-60 (acute promyelocytic leukaemia); assay: as above; type: cell-based; conditions: Homo sapiens
Protocol: as §1

[4] = tested on: HT-29 (colorectal carcinoma); assay: as above; type: cell-based; conditions: Homo sapiens
Protocol: as §1

[5] = tested on: HepG2 (hepatocellular carcinoma); assay: as above; type: cell-based; conditions: Homo sapiens
Protocol: as §1

U87 (glioblastoma) = assay: as above; type: cell-based; conditions: Homo sapiens, read-out: IC50 ± SD
Protocol: as §1

[6] = cited from earlier work
[7] = A2058, 24 h treatment, then three days culture, n = 2, read-out: IC50 ± SD
[8] = HepG2, 24 h treatment, then three days culture, n = 2, read-out: IC50 ± SD
[9] = U87, 24 h treatment, then three days culture, n = 2

SMILES: COc1cc(/C=C/C(=O)CC(=O)/C=C/c2ccc(O)c(OC)c2)ccc1O [Curcumin, curcumin]
- half-life [1]: less than an hour

SMILES: COc1cccc2c1C(=O)c1c(O)c3c(c(O)c1C2=O)C[C@@](O)(C(C)=O)C[C@@H]3O[C@H]1C[C@H](N)[C@H](O)[C@H](C)O1 [Dau, daunomycin, reference compound]
- IC50 ([2]; A2058, read-out: IC50 ± SD): 0.16 µM
- IC50 ([3]; HL-60, read-out: IC50 ± SD): 0.02 ± 0.01 µM
- IC50 ([4]; HT-29, read-out: IC50 ± SD): 0.2 ± 0.01 µM
- IC50 ([5]; HepG2, read-out: IC50 ± SD): 1.2 ± 0.2 µM
- IC50 (U87 (glioblastoma)): 0.4 ± 0.05 µM

- IC50 [2, 7]: 8.9 ± 0.2 µM
- IC50 ([4]; HT-29, 24 h treatment, then three days culture, n = 2, read-out: IC50 ± SD): 18.5 ± 1.7 µM
- IC50 [5, 8]: 20.9 ± 1.2 µM
- IC50 (U87 (glioblastoma); [9]): 27 ± 2.3 µM
SMILES: COc1cc([C@@H]2c3cc4c(cc3[C@@H](O[C@@H]3O[C@@H]5CO[C@@H](C)O[C@H]5[C@H](O)[C@H]3O)[C@H]3COC(=O)[C@H]23)OCO4)cc(OC)c1O [Etoposide, etoposide, reference compound]

SMILES: O=C(/C=C/CCc1ccc(O)c(O)c1)CCc1ccc(O)c(O)c1 [Hirsutenone, hirsutenone]
- half-life ([6]; aqueous solution, 25 °C): 139 h
- half-life ([6]; aqueous solution, 50 °C): 38.2 h
- half-life ([6]; room temperature): less than seven days

- IC50 [2, 7]: 6.8 ± 1.2 µM
- IC50 ([3]; HL-60, 24 h treatment, then three days culture, n = 2, read-out: IC50 ± SD): 4.5 ± 0.7 µM
- IC50 [5, 8]: 5.8 ± 0.7 µM
- IC50 (U87 (glioblastoma); [9]): 0.8 ± 0.3 µM
SMILES: O=C(Nc1ccc(C(F)(F)F)cc1)c1cc(Cl)ccc1O [Sal, 5-chloro-2-hydroxy-N-[4-(trifluoromethyl)phenyl]benzamide, reference compound]
